Columns and labels:
poults (turkeys) = test: Turkey grow out in 20,000 Ft^2 poultry house; assay type: in vivo
Experimental: (§1) The present invention is illustrated by the following Examples however, these Examples are not to be construed as limiting the invention.
4. (Prior art) a poultry house was prepared by cleaning out the used animal bedding (shaved wood chips). The poultry house was then sprayed with a maximum formulation of formaldehyde. After a 72 hour drying period, new shaved wood chips were spread in the poultry house and stocked with 15,000 thousand poults (turkeys). The temperature of the house was maintained at 74°% F±4 degrees F. for the term of the grow out. The term of the grow out was 100 days, average moisture content in the bedding was maintained below 14%. Average relative humidity in the house atmosphere ranged from 40% to 84%.
After two to three weeks, 200 pounds of alum (or aluminum sulfate) was spread evenly on top of the shaved wood chips and dispersed throughout.
5. A poultry house was prepared by spraying all house surfaces (ceiling, walls, and padding/floor) with a solution of 2 pounds of 18.7% formulated TCM per 300 gallons of water. The concentration of the TCM for the washdown was 200 ppm. 12,000 young poults (turkeys) were then placed in the poultry house for a 100-day grow out. The average temperature of the house was maintained at 78° F.±4 degrees for the term of the grow out. The bedding material used was shaved wood chips. Average moisture content in the bedding was maintained below 14%. Average humidity in the house atmosphere ranged from 40% to 68%. The term of the grow out was 100 days.
6. A poultry house was prepared by spraying all house surfaces (ceiling, walls, and padding) after a complete cleanout of previous used wood shavings and manure, with a solution of 2 pounds of 18.7% TCM formulation to 300 gallons of water. The concentration of TCM for the washdown was 200 ppm. 6000 young poults (turkeys) were placed on 3 tons of fresh shaved wood chips in the poultry house. A direct spray-on application of the TCM formulation was sprayed on the new wood shavings and allowed to dry. The solution consisted of 1 pound of formulated TCM to 125 gallons of water or 100 ppm. The average temperature inside the poultry house was maintained at 80 degrees±4 degrees F. for the term of the grow out. Average moisture content in the bedding was maintained below 14%. Average relative humidity in the house atmosphere ranged from 50% to 85%. The term of the grow out was 100 days. The poultry house was retreated via a direct spray-on of the formulated TCM was applied to the bedding material at week 10 of the grow out period for the same batch of turkey poults. The concentration of the TCM in solution was 1 pound of formulated TCM per 125 gallons of water.

chickens = test: Chicken grow out in 20,000 Ft^2 poultry house; assay type: in vivo
Experimental: as §1
3. (Prior art) A poultry house was prepared by cleaning out the used animal bedding (shaved wood chips) The poultry house was then sprayed with a maximum formulation of formaldehyde. After a 72 hour drying period new shaved wood chips were spread in the poultry house and stocked with 19,000 thousand chickens, temperature of the house was maintained at 74% F±4 degrees F. for the term of the grow out. The terms of the grow out was 45 days, average moisture content in the bedding was maintained below 14%. Average relative humidity in the house atmosphere ranged from 40% to 84%.
After two weeks, 200 pounds of alum (aluminum sulfate) was spread evenly on top of the shaved wood chips and dispersed throughout.
7. A poultry house was prepared by using used bedding material. The used animal bedding (shaved wood chips) and manure had been in use for 18 months without removal. A direct spray on application consisting of a solution of one pound of TCM per 125 gallons of water or 100 ppm was sprayed on top of the used animal bedding. 19,000 young chickens were placed in the poultry house. The average temperature of the house was maintained at 78 degrees F. for the term of the grow out. Average moisture content in the bedding was maintained below 14%. The term of the grow out was 39 days.

e.Coli = test: Feces sample from animal bedding tested for e.Coli by independent laboratory; details: Example 8: 190 ppm TCM washdown; 16,000 poults; feces sample at eight weeks
Experimental: (§2) 8. A turkey house was prepared by spraying all surfaces with a solution of TCM. New wood chip bedding was then applied. The concentration was 10 pounds of TCM in 1,600 gallons of water or 190 ppm., 16,000 young poults (turkeys) were then placed in the poultry house for a 100 day grow out.
(§3) The purpose of this application was to compare e.Coli and salmonella results in a controlled environment as an alternative to formaldehyde, the current sanitizing method used by the poultry industry. At eight weeks of the grow out period after the wash down and the placement of the young poults, a feces sample was acquired from the animal bedding to determine disease levels from both the test poultry house and the control poultry house of Example 1. An independent laboratory tested the two samples.

Other avian diseases = test: Feces sample from animal bedding tested for other avian diseases; details: Example 8: 190 ppm TCM washdown; feces sample at eight weeks
Experimental: as §2, §3

[1] = test system: hog waste total bacterial content; test: Percent kill in hog waste mixed with TCM solutions; assay type: cell-based
Experimental: 9. Test were conducted on hog waste, 3 gallons of hog waste feces, urine and spillage were prepared. […] Various solution samples of TCM solutions were prepared and mixed with the 3 gallon samples. The percent kill of these various samples was in accordance with Table III.

salmonella = test: Feces sample from animal bedding tested for salmonella by independent laboratory; details: Example 8: 190 ppm TCM washdown; 16,000 poults; feces sample at eight weeks
Experimental: as §2, §3

[2] = Example 4 (prior art): formaldehyde spray, new wood chips, 200 pounds of alum after two to three weeks, 15,000 poults, 100 days
[3] = Example 3 (prior art): formaldehyde spray, new wood chips, 200 pounds of alum after two weeks, 19,000 chickens, 45 days
[4] = Example 5: house surfaces sprayed with 200 ppm TCM, 12,000 poults, 100-day grow out
[5] = Example 6: 200 ppm TCM washdown, 100 ppm spray on new wood shavings, retreated at week 10, 6000 poults, 100 days
[6] = Example 7: 100 ppm TCM sprayed on 18 month used bedding, 19,000 chickens, 39 days

C=O [formaldehyde, reference compound]
average weight gain for the turkeys (poults (turkeys); [2]): 21.8 pounds
bird mortality rate (poults (turkeys); [2]): 8.1%
birds condemned at the processing facility (poults (turkeys); [2]): 2.3%
average weight gain for the chickens (chickens; [3]): 3.96 pounds
bird mortality rate (chickens; [3]): 3.56%
percentage of birds condemned at the processing facility (chickens; [3]): 0.15%

trichloromelamine [TCM]
e.Coli in the animal bedding material (e.Coli): no e.Coli or salmonella
other avian diseases in the animal bedding material (Other avian diseases): not in the TCM test house
bird mortality (poults (turkeys); [4]): 2.7%
birds condemned at the processing facility (poults (turkeys); [4]): 1.7%
weight gain for the turkeys (poults (turkeys); [4]): 24.3 pounds
bird mortality (poults (turkeys); [5]): 0.7%
birds condemned at the poultry processing facility (poults (turkeys); [5]): 1.4%
weight gain for the birds (poults (turkeys); [5]): 23.9 pounds
weight gains of the chickens versus control poultry house (chickens; Example 7: 100 ppm TCM on used bedding vs control house treated with alum): insignificant difference
average weight (chickens; [6]): 4 pounds
bird mortality rate (chickens; [6]): 1.1%
birds condemned at the poultry processing facility (chickens; [6]): 0.04%
PERCENT KILL ([1]; 0.25 oz. in 3 gallons of hog waste): 99.997%
PERCENT KILL ([1]; 0.50 oz. in 3 gallons of hog waste): 99.9995%
PERCENT KILL ([1]; 0.75 oz. in 3 gallons of hog waste): 99.998%
PERCENT KILL ([1]; 1.0 oz. in 3 gallons of hog waste): 99.9998%
PERCENT KILL ([1]; 2.0 oz. in 3 gallons of hog waste): 99.9996%
PERCENT KILL ([1]; 3.0 oz. in 3 gallons of hog waste): >99.9998%
PERCENT KILL ([1]; 4.0 oz. in 3 gallons of hog waste): >99.9998%
salmonella in the animal bedding material (salmonella): no e.Coli or salmonella
